Legend:
[1] = Pharmacokinetics of CM352 in rats after intravenous administration; format: in vivo; conditions: rat, 1 mg/kg intravenous
Procedure: CM352 solutions were prepared by dissolving the solid in saline. A drug dosage of 1 mg/kg was administered as a single intravenous injection in the femoral vein. Blood was collected into citrated tubes, and plasma was obtained by 2‐step centrifugation: first at 600 g for 10 minutes and then at 18 000 g for 2 minutes. Plasma samples were stored at −80°C until analysis. CM352 was measured in plasma samples using a Xevo‐TQ MS triple quadrupole mass spectrometer with an electrospray ionization source and an Acquity UPLC (Waters, Manchester, UK) as previously reported.20 Briefly, after chromatographic separation, the compound was detected using multiple reaction monitoring. Quantification was achieved by external calibration using matrix‐matched standards prepared by adding the appropriate volume of diluted solutions of the compound (in methanol/water 50:50, v:v) to aliquots of 50 μL blank plasma. Pharmacokinetic parameters were obtained by fitting the blood concentration‐time data to a bicompartmental model with the WinNonlin software (Pharsight, Mountain View, CA).

MMP‐9 = target: T1, MMP‐9 (Homo sapiens, UniProt P14780); assay: MMP enzyme activity assay; format: biochemical; conditions: read-out: MMP Inhibitory Activity (IC50), MMP‐9
T1 construct: GenScript (contract testing)
T1 sequence (P14780 94-707, species assumed): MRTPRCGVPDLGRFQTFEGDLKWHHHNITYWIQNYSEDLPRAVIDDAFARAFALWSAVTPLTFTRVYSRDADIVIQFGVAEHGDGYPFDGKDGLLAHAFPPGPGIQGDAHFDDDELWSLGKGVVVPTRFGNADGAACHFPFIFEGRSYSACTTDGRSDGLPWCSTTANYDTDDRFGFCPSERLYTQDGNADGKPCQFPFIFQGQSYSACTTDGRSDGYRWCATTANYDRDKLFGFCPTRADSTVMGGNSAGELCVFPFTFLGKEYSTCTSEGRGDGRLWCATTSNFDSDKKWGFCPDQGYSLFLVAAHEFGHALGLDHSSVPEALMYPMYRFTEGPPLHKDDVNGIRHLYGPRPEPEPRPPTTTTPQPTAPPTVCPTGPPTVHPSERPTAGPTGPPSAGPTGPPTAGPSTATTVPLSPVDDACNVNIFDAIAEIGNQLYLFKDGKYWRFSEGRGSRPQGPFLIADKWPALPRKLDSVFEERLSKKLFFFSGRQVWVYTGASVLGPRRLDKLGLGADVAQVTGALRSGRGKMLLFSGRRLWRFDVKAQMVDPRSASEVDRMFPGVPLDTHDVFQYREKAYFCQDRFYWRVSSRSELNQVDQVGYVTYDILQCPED
Procedure: (§1) Protease stock solutions (10 mmol/L) were diluted with assay buffer to make final test solutions containing no more than 2.0% DMSO. The samples were dispensed into plates; substrate was added and read with PHERAstar PLUS (BMG Labtech, Ortenberg, Germany) plate reader.

MMP‐2 = target: T2, MMP‐2 (Homo sapiens, UniProt P08253); assay: MMP enzyme activity assay; format: biochemical; conditions: read-out: MMP Inhibitory Activity (IC50), MMP‐2
T2 construct: GenScript (contract testing)
T2 sequence (P08253 110-660): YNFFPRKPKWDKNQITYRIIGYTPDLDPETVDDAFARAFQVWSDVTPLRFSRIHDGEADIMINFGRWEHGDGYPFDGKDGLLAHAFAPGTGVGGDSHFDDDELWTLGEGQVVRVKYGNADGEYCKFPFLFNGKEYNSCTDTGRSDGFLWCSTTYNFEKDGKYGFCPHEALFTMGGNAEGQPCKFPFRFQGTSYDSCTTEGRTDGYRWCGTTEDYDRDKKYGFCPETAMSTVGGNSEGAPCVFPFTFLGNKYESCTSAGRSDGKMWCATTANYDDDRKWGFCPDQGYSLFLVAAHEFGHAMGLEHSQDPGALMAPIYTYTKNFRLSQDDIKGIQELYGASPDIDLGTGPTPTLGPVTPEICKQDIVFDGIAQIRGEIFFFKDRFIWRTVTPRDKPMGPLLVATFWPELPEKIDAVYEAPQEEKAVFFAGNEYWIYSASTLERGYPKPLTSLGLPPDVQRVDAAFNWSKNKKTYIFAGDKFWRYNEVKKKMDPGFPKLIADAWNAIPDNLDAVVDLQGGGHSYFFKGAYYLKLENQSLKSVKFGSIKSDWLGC
Procedure: as §1

MMP‐7 = target: T3, MMP‐7 (Homo sapiens, UniProt P09237); assay: MMP enzyme activity assay; format: biochemical; conditions: read-out: MMP Inhibitory Activity (IC50), MMP‐7
T3 construct: GenScript (contract testing)
T3 sequence (P09237 95-267): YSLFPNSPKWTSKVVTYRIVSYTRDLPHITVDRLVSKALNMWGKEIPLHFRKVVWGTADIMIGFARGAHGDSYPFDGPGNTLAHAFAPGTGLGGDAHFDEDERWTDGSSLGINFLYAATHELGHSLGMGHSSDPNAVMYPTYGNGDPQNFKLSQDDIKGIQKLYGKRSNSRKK
Procedure: as §1

cellular fibronectin = assay: Plasma cellular fibronectin ELISA after ICH; format: in vivo, rat; conditions: 1 mg/kg iv after ICH; data not shown
Procedure: Blood samples (0.5 mL) were drawn from the tail vein before surgery, immediately after surgery, and at 1 hour, 3 hours, 24 hours, and 14 days. Citrate or EDTA plasma was obtained by centrifugation, and samples were stored at −80°C. Enzyme‐linked immunosorbent assay was used to measure interleukin‐6 (IL‐6, ref. KRC0061, Life Technologies, Thermo Fisher Scientific, Waltham, MA), cellular fibronectin (ref. MBS007311, MyBioSource, San Diego, CA), and thrombin‐antithrombin complex (Enzygnost TAT, ref. OWMG15, Siemens Healthcare, Erlangen, Germany) in plasma, as biomarkers of inflammation, cellular damage, and hypercoagulability, respectively. The intra‐assay and interassay coefficients of variation for all molecular markers were <10%.

[2] = test system: tissue‐type plasminogen activator–induced fibrinolysis in mouse whole blood; assay: Whole blood clot formation and lysis assay (ROTEM thromboelastometry), mouse blood; format: biochemical; conditions: tPA‐induced fibrinolysis, read-out: effective concentration to delay lysis time by 50%
Procedure: Citrated blood samples from (n=4) rats (Sprague Dawley) and (n=16) mice ([…], Harlan Iberica) were assayed with a ROTEM analyzer (Pentapharm GmbH, Munich, Germany) as previously described.20 In a prewarmed cuvette and holder we pipetted 1 μL tissue-type plasminogen activator (150 000 U/mL), 20 μL Start-tem reagent (Pentapharm GmbH), 20 μL In-tem reagent (Pentapharm GmbH), 3 μL DMSO (SIGMA) or test compounds in DMSO, and 300 μL prewarmed citrated blood. The cup holder containing the sample mixture was placed immediately on the appropriate channel. Measurements were recorded for 60 minutes to allow clot formation and lysis, and results are expressed as effective concentration to delay lysis time by 50%.

CNC(=O)c1ccc(Oc2ccc(S(=O)(=O)[C@]3(C(=O)NO)CCC4(CCNCC4)C3)cc2)cc1 [CM352, 4‐[4‐[[(3R)‐3‐(Hydroxycarbamoyl)‐8‐azaspiro[4.5]decan‐3‐yl]sulfonyl]phenoxy]‐N‐methylbenzamide]
Kp ([1]; brain, n=3, read-out: Brain/plasma ratio): 0.0193
half-life ([1]; plasma, n=3): 1.09 h
Cmax ([1]; plasma, n=3, read-out: Cmax (maximal plasma concentration)): 7.8 µM
clearance ([1]; plasma, n=3, read-out: Norm. Cl (normalized clearance) (converted)): 7 mL/min/kg
Vd ([1]; plasma, n=3, read-out: Norm. Vz (normalized volume of distribution)): 0.66 L/kg
maximal plasma concentration [1]: 7.8 µmol/L
time CM352 remains in blood above 10 nmol/L [1]: 8 h
IC50 (MMP‐9): 10 nM
IC50 (MMP‐2): 8.4 nM
IC50 (MMP‐7): 16000 nM
cellular fibronectin levels versus control (cellular fibronectin): no differences
EC50 [2]: 200 nM
